Experimental data taken from PubChem BioAssay AID248 (DTP/NCI, 2004).
Several values for one entry are separate records, joined by “and”; a condition that tells them apart may be missing. Identical values can stand only once. Toxic doses and inconclusive results are not listed. Rule as the data show it: active = T/C of 150% or more; inactive = T/C below 125%.

System: L1210 leukemia ip in BDF1 mice, survival T/C
Assay: NCI In Vivo Anticancer Drug Screen. Data for tumor model L1210 Leukemia (intraperitoneal) in B6D2F1 (BDF1) mice
Details: endpoint: mean survival time, higher = longer survival
Procedure, shortened: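 Transplantable tumor model; survival measured in treated vs vehicle control mice. Value = treated/control.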

[1] = dose: 100.0 mg/kg/injection, schedule: Q04DX003 (ip), vehicle: saline
[2] = dose: 100.0 mg/kg/injection, schedule: Q01DX009 (ip), vehicle: saline
[3] = dose: 100.0 mg/kg/injection, schedule: Q04DX003 (ip), vehicle: Klucel (hydroxypropylcellulose) (HPC)
[4] = dose: 200.0 mg/kg/injection, schedule: Q01DX009 (ip), vehicle: saline
[5] = dose: 200.0 mg/kg/injection, schedule: Q04DX003 (ip), vehicle: Klucel (hydroxypropylcellulose) (HPC)
[6] = dose: 200.0 mg/kg/injection, schedule: Q04DX003 (ip), vehicle: saline
[7] = dose: 400.0 mg/kg/injection, schedule: Q01DX009 (ip), vehicle: saline
[8] = dose: 400.0 mg/kg/injection, schedule: Q04DX003 (ip), vehicle: Klucel (hydroxypropylcellulose) (HPC)
[9] = dose: 400.0 mg/kg/injection, schedule: Q04DX003 (ip), vehicle: saline
[10] = dose: 50.0 mg/kg/injection, schedule: Q01DX009 (ip), vehicle: saline
[11] = dose: 25.0 mg/kg/injection, schedule: Q01DX009 (ip), vehicle: saline
[12] = dose: 100.0 mg/kg/injection, schedule: Q04DX002 (ip), vehicle: Klucel (hydroxypropylcellulose) (HPC)
[13] = dose: 100.0 mg/kg/injection, schedule: Q01DX009 (ip), vehicle: Klucel (hydroxypropylcellulose) (HPC)
[14] = dose: 200.0 mg/kg/injection, schedule: Q01DX009 (ip), vehicle: Klucel (hydroxypropylcellulose) (HPC)
[15] = dose: 400.0 mg/kg/injection, schedule: Q01DX009 (ip), vehicle: Klucel (hydroxypropylcellulose) (HPC)
[16] = dose: 50.0 mg/kg/injection, schedule: Q01DX001 (ip), vehicle: carboxymethylcellulose (CMC)
[17] = dose: 100.0 mg/kg/injection, schedule: Q01DX001 (ip), vehicle: carboxymethylcellulose (CMC)
[18] = dose: 200.0 mg/kg/injection, schedule: Q01DX001 (ip), vehicle: carboxymethylcellulose (CMC)
[19] = dose: 400.0 mg/kg/injection, schedule: Q01DX001 (ip), vehicle: carboxymethylcellulose (CMC)

Measured: T/C

O=C(C[n+]1cccc(C(=O)Nc2ccccc2)c1)Nc1ccccc1
inactive: [1] 95 % of control

C=CCNC(=O)c1ccccc1O
inactive: dose: 100.0 mg/kg/injection, schedule: Q01DX009 (sc), vehicle: olive oil, sesame oil, peanut oil 101 % of control | dose: 100.0 mg/kg/injection, schedule: Q04DX003 (sc), vehicle: olive oil, sesame oil, peanut oil 91 % of control | dose: 200.0 mg/kg/injection, schedule: Q01DX009 (sc), vehicle: olive oil, sesame oil, peanut oil 101 % of control | dose: 200.0 mg/kg/injection, schedule: Q04DX003 (sc), vehicle: olive oil, sesame oil, peanut oil 100 % of control | dose: 400.0 mg/kg/injection, schedule: Q01DX009 (sc), vehicle: olive oil, sesame oil, peanut oil 94 % of control | dose: 400.0 mg/kg/injection, schedule: Q04DX003 (sc), vehicle: olive oil, sesame oil, peanut oil 91 % of control

CCOC(=O)CC(N)C(=O)OCC (stereo not drawn)
inactive: [2] 98 % of control | [3] 99 % of control | [1] 88 % of control | [4] 95 % of control | [5] 100 % of control | [6] 93 % of control | [7] 97 % of control | [8] 87 % of control | [9] 102 % of control

CCCCCC(=O)/C=C/CC(CCCCCCC#N)C(CC(OC)OC)[N+](=O)[O-] (stereo not drawn)
inactive: [3] 100 % of control | [5] 96 % of control | [8] 96 % of control

O=C(CCCC(=O)NO)NO
inactive: dose: 100.0 mg/kg/injection, schedule: Q04DX002 (ip), vehicle: saline with Tween-80 113 % of control | dose: 100.0 mg/kg/injection, schedule: Q04DX002 (ip), vehicle: saline 100 % of control | dose: 200.0 mg/kg/injection, schedule: Q04DX002 (ip), vehicle: saline with Tween-80 100 % of control | dose: 200.0 mg/kg/injection, schedule: Q04DX002 (ip), vehicle: saline 97 % of control | dose: 400.0 mg/kg/injection, schedule: Q04DX002 (ip), vehicle: saline with Tween-80 97 % of control | dose: 400.0 mg/kg/injection, schedule: Q04DX002 (ip), vehicle: saline 113 % of control

CCN(CC)CCOC(=O)c1ccc(Cl)cc1
inactive: [10] 100 % of control | [2] 96 % of control | [4] 96 % of control

N#CCN1CCOCC1
inactive: [11] 122 % of control | [10] 101 % of control | [2] 97 % of control and 98 % of control | [1] 103 % of control | [4] 110 % of control | [6] 97 % of control

CCCNC(=O)c1cccc2c1-c1ccccc1C2=O
inactive: dose: 100.0 mg/kg/injection, schedule: Q01DX001 (ip), vehicle: other 93 % of control | dose: 200.0 mg/kg/injection, schedule: Q01DX001 (ip), vehicle: other 93 % of control | dose: 400.0 mg/kg/injection, schedule: Q01DX001 (ip), vehicle: other 87 % of control

CC(=O)OC1C=CCc2c(O)c3c(c(O)c21)C(=O)c1ccccc1C3=O (stereo not drawn)
inactive: [2] 91 % of control | [1] 90 % of control | [4] 109 % of control | [6] 88 % of control | [7] 103 % of control | [9] 91 % of control

C=CS(=O)(=O)c1ccc(C)cc1
inactive: dose: 25.0 mg/kg/injection, schedule: Q04DX002 (ip), vehicle: Klucel (hydroxypropylcellulose) (HPC) 104 % of control | dose: 50.0 mg/kg/injection, schedule: Q04DX002 (ip), vehicle: Klucel (hydroxypropylcellulose) (HPC) 110 % of control | [12] 96 % of control and 104 % of control

CCOC(=O)c1ccc(NC(=O)Oc2cc(=O)oc3ccccc23)cc1
inactive: [13] 97 % of control | [14] 95 % of control | [15] 96 % of control

Cc1ccc(CN(C)C)c(C(O)(c2ccccc2)c2ccccc2)c1
inactive: [16] 96 % of control | [17] 107 % of control | [18] 100 % of control | [19] 96 % of control

O=C(O)/C=C/C(=O)NCCC(=O)O
inactive: [2] 114 % of control | [4] 115 % of control | [7] 109 % of control

CCOC(=O)c1ccc(N=NN(CCF)CCF)cc1
inactive: dose: 10.0 mg/kg/injection, schedule: Q01DX Z (ip), vehicle: saline 95 % of control | dose: 30.0 mg/kg/injection, schedule: Q01DX Z (ip), vehicle: saline 94 % of control | dose: 100.0 mg/kg/injection, schedule: Q01DX Z (ip), vehicle: saline 89 % of control | dose: 300.0 mg/kg/injection, schedule: Q01DX Z (ip), vehicle: saline 95 % of control

C(/C=C/c1ccccc1)=Nc1ccc2c(c1)Cc1ccccc1-2
inactive: [3] 94 % of control | [5] 89 % of control | [8] 89 % of control

c1ccc2c3c([nH]c2c1)CCC3
inactive: [17] 93 % of control | [18] 98 % of control | [19] 102 % of control

O=C(O)C1CCC(=O)C2CCCCC12 (stereo not drawn)
inactive: dose: 100.0 mg/kg/injection, schedule: Q01DX001 (ip), vehicle: saline 97 % of control | dose: 200.0 mg/kg/injection, schedule: Q01DX001 (ip), vehicle: saline 94 % of control | dose: 400.0 mg/kg/injection, schedule: Q01DX001 (ip), vehicle: saline 95 % of control

O=C1C2C(C(=O)N1c1ccc([N+](=O)[O-])cc1)C1c3ccccc3C2C2CCCCN21 (stereo not drawn)
inactive: [10] 95 % of control | dose: 50.0 mg/kg/injection, schedule: Q04DX003 (ip), vehicle: saline 104 % of control | [2] 92 % of control | [1] 97 % of control | [6] 88 % of control

[O-][N+](=Nc1cccc(Br)c1)c1cccc(Br)c1
inactive: [16] 101 % of control | [17] 104 % of control | [18] 101 % of control | [19] 117 % of control

CCN(CC)CCSC(=O)C(O)(c1ccccc1)C1CCCC1 (stereo not drawn)
inactive: [11] 103 % of control | [10] 97 % of control and 108 % of control | dose: 75.0 mg/kg/injection, schedule: Q01DX001 (ip), vehicle: saline 96 % of control | [2] 100 % of control and 88 % of control | [1] 102 % of control | dose: 150.0 mg/kg/injection, schedule: Q01DX001 (ip), vehicle: saline 92 % of control | [6] 100 % of control

Nc1c(-c2ccccc2)nnn1-c1ccc2ccccc2c1
inactive: dose: 100.0 mg/kg/injection, schedule: Q04DX002 (ip), vehicle: gum acacia 101 % of control | dose: 200.0 mg/kg/injection, schedule: Q04DX002 (ip), vehicle: gum acacia 96 % of control | dose: 400.0 mg/kg/injection, schedule: Q04DX002 (ip), vehicle: gum acacia 96 % of control

O=C(c1ccccc1)c1cc(Cl)ccc1O
inactive: dose: 75.0 mg/kg/injection, schedule: Q01DX009 (ip), vehicle: Klucel (hydroxypropylcellulose) (HPC) 102 % of control | [12] 100 % of control | dose: 150.0 mg/kg/injection, schedule: Q01DX009 (ip), vehicle: Klucel (hydroxypropylcellulose) (HPC) 98 % of control | dose: 200.0 mg/kg/injection, schedule: Q04DX002 (ip), vehicle: Klucel (hydroxypropylcellulose) (HPC) 93 % of control | dose: 300.0 mg/kg/injection, schedule: Q01DX009 (ip), vehicle: Klucel (hydroxypropylcellulose) (HPC) 94 % of control | dose: 400.0 mg/kg/injection, schedule: Q04DX002 (ip), vehicle: Klucel (hydroxypropylcellulose) (HPC) 96 % of control

CCC(C#N)(c1ccccc1)c1ccccc1
inactive: [13] 96 % of control | [3] 98 % of control | [14] 94 % of control | [5] 94 % of control | [15] 94 % of control | [8] 98 % of control

C=C(C)COc1c(C)cc(C)cc1[N+](=O)[O-]
inactive: dose: 100.0 mg/kg/injection, schedule: Q04DX003 (ip), vehicle: saline with Tween-80 96 % of control | dose: 200.0 mg/kg/injection, schedule: Q04DX003 (ip), vehicle: saline with Tween-80 100 % of control | dose: 400.0 mg/kg/injection, schedule: Q04DX003 (ip), vehicle: saline with Tween-80 97 % of control

CCOC(=O)NP(NC(=O)NOC)NC(=O)OCC
inactive: [17] 101 % of control | [18] 93 % of control | [19] 101 % of control

COc1cc2c(cc1OC)C1c3cc(OC)c(OC)cc3CC(=O)N1CC2 (stereo not drawn)
inactive: [10] 87 % of control | [2] 104 % of control | [1] 100 % of control | [4] 102 % of control | [6] 96 % of control | [7] 98 % of control | [9] 95 % of control
